What was measured:
[1] = system: COPD bronchial epithelial cells infected with HRV16; assay: Genome-wide transcriptional analysis by microarray of COPD BECs infected with HRV16; assay type: cell-based, human; settings: 72 h HRV16 infection
Excerpt: (§1) Air-liquid interface (ALI) cultured human bronchial epithelial cells (BECs) from chronic obstructive pulmonary disease (COPD) donors were either bought fully differentiated (Epithelix Sarl, Cat. No. EP10MD) or cultured in-house using the Pneumocult method (StemCell Technologies, Cat. No. 05001), in a 24-well format. Primary cells for in-house ALI cultures were obtained from Epithelix Sarl, Cat. No. EP18AB.
(§2) Prior to infection, ALI cells were washed twice in warm PBS (with Ca2^+/Mg2^+). Subsequently, human rhinovirus 16 was applied at multiplicity of infection (MOI) of 1 or 5 in a total volume of 50 μl culture medium. The virus was allowed to attach for 1h at room temperature with gentle agitation. Consequently, the virus was washed off with warm PBS (with Ca2^+/Mg2^+) and cells were further cultured at 37° C. for the indicated amount of time either with or without the addition of a rsecretase inhibitor CompA (S)-2-[2-(3,5-difluorophenyl)-acetylamino]-N—((S)-1-methyl-2-oxo-5-phenyl-2,3-dihydro-1H-benzo[e][1,4]diazepin-3-yl)-propionamide, (Calbiochem Cat. No. 565790).
(§3) Ribonucleic acid (RNA) from ALI cultured COPD BECs was prepared by lysing the cells in RLT buffer supplied with Promega Total RNA Isolation System (Promega, Cat. No. Z3505). RNA was then extracted by using the manufacturer's protocol with automation. Murine total lung RNA was isolated by first homogenisation of the lung in 1 ml TRIZOL™ reagent, then subsequent phase separation with 1-bromo-3-chloropropane (BCP) (MRC, Cat. No. BP151). The aqueous phase was then mixed with 70% ethanol and final RNA extraction was achieved using the Promega Total RNA Isolation System with automation. […] Amplification of specific targets was performed by quantitative real-time polymerase chain reaction (qRT-PCR) using the TaqMan® gene expression system (Applied Biosystems Cat. No. 4369510) and ready to use TaqMan® primer/probes (see Table 1). […]

[2] = system: COPD BECs infected with HRV16; assay: Gene expression by real-time PCR in ALI cultures of COPD BECs infected with HRV16; assay type: cell-based, human; settings: 24 h post HRV16 infection
Excerpt: as §1
(§4) Prior to infection, ALI cells were washed twice in warm PBS (with Ca2^+/Mg2^+). Subsequently, human rhinovirus 16 was applied at multiplicity of infection (MOI) of 1 or 5 in a total volume of 50 μl culture medium. The virus was allowed to attach for 1h at room temperature with gentle agitation. […]
Ribonucleic acid (RNA) from ALI cultured COPD BECs was prepared by lysing the cells in RLT buffer supplied with Promega Total RNA Isolation System (Promega, Cat. No. Z3505). […] Amplification of specific targets was performed by quantitative real-time polymerase chain reaction (qRT-PCR) using the TaqMan® gene expression system (Applied Biosystems Cat. No. 4369510) and ready to use TaqMan® primer/probes (see Table 1). […]

[3] = system: COPD BECs infected with HRV16; assay: Mucociliary responses of BECs infected with HRV16 (real-time PCR, AB/PAS staining, β-tubulin IV immunofluorescence); assay type: cell-based, human
Excerpt: as §1, §2
Ribonucleic acid (RNA) from ALI cultured COPD BECs was prepared by lysing the cells in RLT buffer supplied with Promega Total RNA Isolation System (Promega, Cat. No. Z3505). RNA was then extracted by using the manufacturer's protocol with automation. Murine total lung RNA was isolated by first homogenisation of the lung in 1 ml TRIZOL™ reagent, then subsequent phase separation with 1-bromo-3-chloropropane (BCP) (MRC, Cat. No. BP151). The aqueous phase was then mixed with 70% ethanol and final RNA extraction was achieved using the Promega Total RNA Isolation System with automation. Complementary deoxyribonucleic acid (cDNA) was synthesised by reverse transcription using MultiScribe™ Reverse Transcriptase and random primers according to the manufacturer's protocol (Applied Biosystems, Cat. No. 4368814). Amplification of specific targets was performed by quantitative real-time polymerase chain reaction (qRT-PCR) using the TaqMan® gene expression system (Applied Biosystems Cat. No. 4369510) and ready to use TaqMan® primer/probes (see Table 1). Global gene expression analysis was performed by microarray using the Human Genome U133 Plus 2.0 genechip and was done either by Epistem Ltd. (Manchester, UK) or Expression Analysis, Inc. (Durham, US). Data analysis was performed using Array Studio software (OmicSoft Corporation, Cary, US) with GC-RMA normalisation algorithm. Probes with intensities less than the geometric mean of 64 were discarded. […]
ALI cultured BECs were fixed in 4% paraformaldehyde (PFA) overnight. Mucus load was assessed by histological sections with Alcian Blue/Periodic Acid Schiff (AB/PAS) stainings and were performed by the GSK PTS histological core facility. […]

[4] = system: ALI cultured COPD BECs infected with HRV16; assay: Protein secretion of immune mediators in supernatants of ALI cultured COPD BECs (MSD/ELISA); assay type: cell-based, human; settings: 72 h post HRV16 infection
Excerpt: as §1, §4
Detection of secreted proteins was done on the Meso Scale Discovery (MSD®) platform according to the manufacturer's protocol. Chemokines CXCL6 and CCL5 were detected by enzyme linked immunosorbent assay (ELISA) kits both bought from R&D systems, Cat. Nos. DY333 and DRN00B, respectively. […] Analytical flow cytometry was performed using the FACSCanto II (Beckton Dickinson) and analysed using FlowJo software (Tree Star, Inc. Ashland, US).

healthy neutrophil = assay: Neutrophil chemotaxis in response to supernatants from HRV16 infected COPD BECs; assay type: cell-based; settings: supernatants of COPD BECs 72 h post HRV16 infection, versus untreated infected samples
T-cell = T-cell chemotaxis in response to supernatants from HRV16 infected COPD BECs; assay type: cell-based; settings: supernatants of COPD BECs 72 h post HRV16 infection
[5] = system: female Balb/c mice following HRV1B inoculation; assay: Inflammation and mucus gene expression in lungs of mice following HRV1B inoculation; assay type: in vivo; settings: 8 h post infection, 0.5 mg/kg
Description: For in-vivo experiments, 8 weeks old female BALB/c mice were intra-nasally infected with 1×10^8 plaque forming units (PFUs) of human rhinovirus serotype 1b (HRV1b) virus in a total of 50 μl and either treated or not with a γ-secretase inhibitor CompB N2-[(2S)-2-(3,5-difluorophenyl)-2-hydroxyethanoyl]-N1-[(7S)-5-methyl-6-oxo-6,7-dihydro-5H-dibenzo[b,d]azepin-7-yl]-L-alaninamide at a concentration of 0.5 mg/kg. To assess inflammation to the lung, broncho-alveolar lavage fluid (BALF) was collected and cellular infiltrates analysed on the Sysmex cell analysis system (Milton Keynes, UK). Subsequently, whole lung was placed into 1 ml of TRIZOL™ reagent for downstream gene expression analysis.
as §3, with “BP151).” for “BP151). The aqueous phase was then mixed with 70% ethanol and final RNA extraction was achieved using the Promega Total RNA Isolation System with automation.”

[6] = healthy and COPD human BECs at ALI

Structure (SMILES)	cilia associated genes (expression) [1]	interferon response [1]	upregulation of goblet cell associated genes [1]	gene expression of T-cell associated chemokines [2]	gene expression of neutrophilic chemokines [2]	ciliation ([3]; COPD BECs, 72 h, ciliated cell genes and β-tubulin IV staining)	mucus production ([3]; COPD BECs, 72 h, goblet cell genes and AB/PAS staining)	loss of ciliation [3, 6]	mucus secretion [3, 6]	secretion of T-cell associated chemokines [4]	secretion of neutrophilic chemokines [4]	neutrophil chemotaxis (healthy neutrophil)	T-cell chemotaxis (T-cell)	mucin gene expression (Muc5ac) in lungs [5]	recruitment of neutrophils into the lungs (BAL) [5]
C[C@H](NC(=O)Cc1cc(F)cc(F)c1)C(=O)N[C@H]1N=C(c2ccccc2)c2ccccc2N(C)C1=O [CompA, (S)-2-[2-(3,5-difluorophenyl)-acetylamino]-N—((S)-1-methyl-2-oxo-5-phenyl-2,3-dihydro-1H-benzo[e][1,4]diazepin-3-yl)-propionamide]	restores cilia associated genes	left unaltered	inhibits upregulation of goblet cell associated genes	less affected	transcriptional inhibition	restores ciliation	inhibits mucus production	prevents the loss of ciliation	reduces mucus secretion	less affected	reduced secretion	reduced	unaltered		
C[C@H](NC(=O)[C@@H](O)c1cc(F)cc(F)c1)C(=O)N[C@@H]1C(=O)N(C)c2ccccc2-c2ccccc21 [CompB, N2-[(2S)-2-(3,5-difluorophenyl)-2-hydroxyethanoyl]-N1-[(7S)-5-methyl-6-oxo-6,7-dihydro-5H-dibenzo[b,d]azepin-7-yl]-L-alaninamide]														reduced	reduced

— patent US20170290844A1, “Methods of Treatment” (GlaxoSmithKline Intellectual Property Development Limited, priority 2014, published 2017)
